# The source made the active and inactive calls. No cut-off for these calls is given here.
# Key:
# MDA-MB-231 [1] = assay: Antiproliferation activity against human MDA-MB-231 cells assessed as reduction in cell viability after 72 hrs by CCK8 assay; type: functional, cell-based; details: MDA-MB-231, 72 h
# MCF7 [2] = assay: Antiproliferation activity against human MCF-7 cells assessed as reduction in cell viability after 72 hrs by CCK8 assay; type: functional, cell-based; details: MCF7, 72 h
# A549 = assay: Antiproliferation activity against human A549 cells assessed as reduction in cell viability after 72 hrs by CCK8 assay; type: functional, cell-based; details: A549, 72 h
# HepG2 = assay: Antiproliferation activity against human HepG2 cells assessed as reduction in cell viability after 72 hrs by CCK8 assay; type: functional, cell-based; details: HepG2, 72 h
# MCF-10A = assay: Cytotoxicity against human MCF-10A cells assessed as reduction in cell viability after 72 hrs by CCK8 assay; type: cell-based
# HUVEC = assay: Cytotoxicity against human HUVEC cells assessed as reduction in cell viability after 72 hrs by CCK8 assay; type: cell-based
# MDA-MB-231 [3] = assay: Inhibition of colony formation in human MDA-MB-231 cells at 0.25 to 2 times of IC50 concentration incubated for 48 hrs by plate colony counting assay; type: functional, cell-based
# MCF7 [4] = assay: Inhibition of colony formation in human MCF-7 cells at 0.25 to 2 times of IC50 concentration incubated for 48 hrs by plate colony counting assay; type: functional, cell-based
# MDA-MB-231 [5] = assay: Inhibition of colony formation in human MDA-MB-231 cells at IC50 concentration upto 72 hrs by plate colony counting assay; type: functional, cell-based; details: time hrs <=72, TDE = time-dependent effect
# MCF7 [6] = assay: Inhibition of colony formation in human MCF-7 cells at IC50 concentration upto 72 hrs by plate colony counting assay; type: functional, cell-based; details: time hrs <=72, TDE = time-dependent effect
# MDA-MB-231 [7] = assay: Inhibition of cell migration in human MDA-MB-231 cells 0.5 to 2 times of IC50 incubated up to 48 hrs by scratch wound healing assay; type: functional, cell-based; details: time hrs <=48
# MCF7 [8] = assay: Inhibition of cell migration in human MCF-7 cells 0.5 to 2 times of IC50 incubated up to 48 hrs by scratch wound healing assay; type: functional, cell-based; details: time hrs <=48
# MDA-MB-231 [9] = assay: Induction of apoptosis in human MDA-MB-231 cells assessed as early apoptotic cells at 0.5 times of IC50 by Annexin V-FITC/PI double staining based flow cytometry analysis (reference value: 6.64%); type: functional
# MDA-MB-231 [10] = assay: Induction of apoptosis in human MDA-MB-231 cells assessed as late apoptotic cells at 0.5 times of IC50 by Annexin V-FITC/PI double staining based flow cytometry analysis (reference value: 0.00%); type: functional
# MDA-MB-231 [11] = assay: Induction of apoptosis in human MDA-MB-231 cells assessed as necrotic cells at 0.5 times of IC50 by Annexin V-FITC/PI double staining based flow cytometry analysis (reference value: 0.02%); type: functional
# MDA-MB-231 [12] = assay: Induction of apoptosis in human MDA-MB-231 cells assessed as viable cells at 0.5 times of IC50 by Annexin V-FITC/PI double staining based flow cytometry analysis (reference value: 93.34%); type: functional
# MDA-MB-231 [13] = assay: Induction of apoptosis in human MDA-MB-231 cells assessed as early apoptotic cells at IC50 by Annexin V-FITC/PI double staining based flow cytometry analysis (reference value: 6.64%); type: functional
# MDA-MB-231 [14] = assay: Induction of apoptosis in human MDA-MB-231 cells assessed as late apoptotic cells at IC50 by Annexin V-FITC/PI double staining based flow cytometry analysis (reference value: 0.00%); type: functional
# MDA-MB-231 [15] = assay: Induction of apoptosis in human MDA-MB-231 cells assessed as necrotic cells at IC50 by Annexin V-FITC/PI double staining based flow cytometry analysis (reference value: 0.02%); type: functional
# MDA-MB-231 [16] = assay: Induction of apoptosis in human MDA-MB-231 cells assessed as viable cells at IC50 by Annexin V-FITC/PI double staining based flow cytometry analysis (reference value: 93.34%); type: functional
# MDA-MB-231 [17] = assay: Induction of apoptosis in human MDA-MB-231 cells assessed as early apoptotic cells at 2 times of IC50 by Annexin V-FITC/PI double staining based flow cytometry analysis (reference value: 6.64%); type: functional
# MDA-MB-231 [18] = assay: Induction of apoptosis in human MDA-MB-231 cells assessed as late apoptotic cells at 2 times of IC50 by Annexin V-FITC/PI double staining based flow cytometry analysis (reference value: 0.00%); type: functional
# MDA-MB-231 [19] = assay: Induction of apoptosis in human MDA-MB-231 cells assessed as necrotic cells at 2 times of IC50 by Annexin V-FITC/PI double staining based flow cytometry analysis (reference value: 0.02%); type: functional
# MDA-MB-231 [20] = assay: Induction of apoptosis in human MDA-MB-231 cells assessed as viable cells at 2 times of IC50 by Annexin V-FITC/PI double staining based flow cytometry analysis (reference value: 93.34%); type: functional
# MDA-MB-231 [21] = assay: Induction of cell cycle arrest in human […] cells assessed as increase in accumulation of cells at G0/G1 phase at 0.5 to 2 times of IC50 after 48 hrs by propidium iodide staining-based flow cytometric analysis; type: functional
# MDA-MB-231 [22] = assay: Induction of cell cycle arrest in human […] cells assessed as decrease in accumulation of cells at S phase at 0.5 to 2 times of IC50 after 48 hrs by propidium iodide staining-based flow cytometric analysis; type: functional
# MDA-MB-231 [23] = assay: Induction of cell cycle arrest in human […] cells assessed as decrease in accumulation of cells at G2/M phase at 0.5 to 2 times of IC50 after 48 hrs by propidium iodide staining-based flow cytometric analysis; type: functional
# [24] = Toxicity in mouse xenografted with human MDA-MB-468 cells assessed as effect on body weight at 25 to 75 mg/kg; type: organism-based; details: in vivo, dose 25-75 mg/kg
# [25] = Antitumour activity against human MDA-MB-468 cells xenografted in mouse assessed as reduction in Ki67 positive cells at 25 mg/kg, by immunohistochemical analysis (reference value: 76.50 +/- 5.28%); type: functional, MDA-MB-231; parameters: scale not given: the % may be the effect or the level left
# [26] = Antitumour activity against human MDA-MB-468 cells xenografted in mouse assessed as reduction in Ki67 positive cells at 50 mg/kg, by immunohistochemical analysis (reference value: 76.50 +/- 5.28%); type: functional, MDA-MB-231; parameters: scale not given: the % may be the effect or the level left
# [27] = Antitumour activity against human MDA-MB-468 cells xenografted in mouse assessed as reduction in Ki67 positive cells at 75 mg/kg, by immunohistochemical analysis (reference value: 76.50 +/- 5.28%); type: functional, MDA-MB-231; parameters: scale not given: the % may be the effect or the level left
smiles,measurement,setting,value
COc1cc2nccc(Oc3ccc(NC(=O)C4(C(=O)Nc5ccc(F)cc5)CC4)cc3)c2cc1OC [CABOZANTINIB],IC50,MDA-MB-231 [1],19.7 µM
same,IC50,MCF7 [2],14.3 µM
same,IC50,A549,15.2 µM
same,IC50,HepG2,15.6 µM
O=c1[nH]cc(F)c(=O)[nH]1 [FLUOROURACIL],IC50,MDA-MB-231 [1],5.85 µM
same,IC50,MCF7 [2],5.44 µM
same,IC50,A549,2.53 µM
same,IC50,HepG2,2.98 µM
COc1cccc(OC)c1C(=O)Nc1ccc(C(=O)/C=C/c2nc(C)c(C)nc2C)cc1,IC50,MDA-MB-231 [1],3.85 µM
same,IC50,MCF7 [2],2.47 µM
same,IC50,A549,8.47 µM
same,IC50,HepG2,3.38 µM
O=C(/C=C/c1ccc(O)cc1)c1ccc(O)cc1O [ISOLIQUIRITIGENIN],IC50,MDA-MB-231 [1],10.9 µM
same,IC50,MCF7 [2],17.7 µM
same,IC50,A549,52.6 µM
same,IC50,HepG2,27.7 µM
COc1cc(C(=O)Nc2ccc(C(=O)/C=C/c3nc(C)c(C)nc3C)cc2)cc(OC)c1OC,IC50,MDA-MB-231 [1],4.74 µM
same,IC50,MCF7 [2],2.76 µM
same,IC50,A549,7.35 µM
same,IC50,HepG2,4.86 µM
Cc1nc(C)c(/C=C/C(=O)c2ccc(NC(=O)c3ccc(F)cc3F)cc2)nc1C,IC50,MDA-MB-231 [1],1.77 µM
same,IC50,MCF7 [2],1.61 µM
same,IC50,A549,2.45 µM
same,IC50,HepG2,2.99 µM
Cc1nc(C)c(C)nc1C [LIGUSTRAZINE],IC50,MDA-MB-231 [1],20.4 µM
same,IC50,MCF7 [2],29.9 µM
same,IC50,A549,36.5 µM
same,IC50,HepG2,38.2 µM
Cc1ccc(C(=O)Nc2ccc(C(=O)/C=C/c3nc(C)c(C)nc3C)cc2)cc1,IC50,MDA-MB-231 [1],1.78 µM
same,IC50,MCF7 [2],1.18 µM
same,IC50,A549,9.99 µM
same,IC50,HepG2,5.45 µM
Cc1nc(C)c(/C=C/C(=O)c2ccc(NC(=O)c3ccccc3F)cc2)nc1C,IC50,MDA-MB-231 [1],1.98 µM
same,IC50,MCF7 [2],1.27 µM
same,IC50,A549,7.39 µM
same,IC50,HepG2,2.04 µM
COc1cc(OC)cc(C(=O)Nc2ccc(C(=O)/C=C/c3nc(C)c(C)nc3C)cc2)c1,IC50,MDA-MB-231 [1],11.6 µM
same,IC50,MCF7 [2],6.27 µM
same,IC50,A549,10.2 µM
same,IC50,HepG2,11 µM
Cc1nc(C)c(/C=C/C(=O)c2ccc(NC(=O)c3ccc(F)cc3)cc2)nc1C,IC50,MDA-MB-231 [1],1.67 µM
same,IC50,MCF7 [2],1.54 µM
same,IC50,A549,4.48 µM
same,IC50,HepG2,2.25 µM
same,IC50,MCF-10A,42.9 µM
same,IC50,HUVEC,32.7 µM
same,inhibition,MDA-MB-231 [3],Dose-Dependent Effect
same,inhibition,MCF7 [4],Dose-Dependent Effect
same,inhibition,MDA-MB-231 [5],Tde
same,inhibition,MCF7 [6],Tde
same,inhibition,MDA-MB-231 [7],Dose-Dependent Effect
same,inhibition,MCF7 [8],Dose-Dependent Effect
COc1ccc(C(=O)Nc2ccc(C(=O)/C=C/c3nc(C)c(C)nc3C)cc2)cc1OC,IC50,MDA-MB-231 [1],3.36 µM
same,IC50,MCF7 [2],1.66 µM
same,IC50,A549,5.06 µM
same,IC50,HepG2,2.56 µM
COc1ccc(C(=O)Nc2ccc(C(=O)/C=C/c3nc(C)c(C)nc3C)cc2)cc1,IC50,MDA-MB-231 [1],1.6 µM
same,IC50,MCF7 [2],1.41 µM
same,IC50,A549,4.15 µM
same,IC50,HepG2,1.19 µM
same,IC50,MCF-10A,59.6 µM
same,IC50,HUVEC,29.2 µM
same,inhibition,MDA-MB-231 [3],Dose-Dependent Effect
same,inhibition,MCF7 [4],Dose-Dependent Effect
same,inhibition,MDA-MB-231 [5],Tde
same,inhibition,MCF7 [6],Tde
same,inhibition,MDA-MB-231 [7],Dose-Dependent Effect
same,inhibition,MCF7 [8],Dose-Dependent Effect
same,Activity,MDA-MB-231 [9],25.14%
same,Activity,MDA-MB-231 [10],0.65%
same,Activity,MDA-MB-231 [11],1.54%
same,Activity,MDA-MB-231 [12],72.66%
same,Activity,MDA-MB-231 [13],43.98%
same,Activity,MDA-MB-231 [14],8.62%
same,Activity,MDA-MB-231 [15],2.89%
same,Activity,MDA-MB-231 [16],44.51%
same,Activity,MDA-MB-231 [17],50.96%
same,Activity,MDA-MB-231 [18],15.92%
same,Activity,MDA-MB-231 [19],2.15%
same,Activity,MDA-MB-231 [20],30.97%
same,Activity,MDA-MB-231 [21],Active
same,Activity,MDA-MB-231 [22],Active
same,Activity,MDA-MB-231 [23],Active
same,Activity,[24],Non-Toxic
same,Activity,[25],19.51%
same,Activity,[26],11.29%
same,Activity,[27],8.95%
Cc1nc(C)c(/C=C/C(=O)c2ccc(NC(=O)c3ccccc3)cc2)nc1C,IC50,MDA-MB-231 [1],1.84 µM
same,IC50,MCF7 [2],0.99 µM
same,IC50,A549,7.27 µM
same,IC50,HepG2,1.31 µM

# Source: ChEMBL document CHEMBL4819157, “Synthesis and biological evaluation of novel ligustrazine-chalcone derivatives as potential anti-triple negative breast cancer agents” (Bioorg Med Chem Lett, 2021)
